Key:
Assay type in all cases: cell-based
[1] = system: Proteus mirabilis; assay: MIC against Gram-negative bacteria: Proteus mirabilis
In short: (§1)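 MIC, the lowest recombinant protein concentration giving no bacterial growth, found by two-fold serial dilution of human EGF-domain proteins in triplicate. Inoculum 5×10^5 CFU/mL in LB from cultures at McFarland 0.5; plates incubated at 37° C, 175 rpm shaking.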

[2] = system: Serratia marcescens; assay: MIC against Gram-negative bacteria: Serratia marcescens
In short: as §1

[3] = system: E. coli DH5α; assay: Antibacterial activity: MIC and growth curve against E. coli DH5α in 96-well plate; conditions: minimal inhibitory concentration against E. coli DH5α; 96-well plate, 5×10^5 CFU/mL, 37° C., judged after 8 h
In short: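 MIC taken as lowest protein level with no bacterial growth, tracked by A600 every 30 min during 37 °C, 175 rpm culture. Two-fold protein series 50-12.5 μg/mL final, triplicate wells, against 5×10^5 CFU/mL of LB-washed mid-log cells.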

[4] = system: E. coli BL21; assay: MIC against Gram-negative bacteria: E. coli BL21
In short: as §1

[5] = system: Pseudomonas aeruginosa; assay: MIC against Gram-negative bacteria: Pseudomonas aeruginosa
In short: as §1

[6] = system: Klebsiella pneumonia; assay: MIC against Gram-negative bacteria: Klebsiella pneumonia
In short: as §1

[7] = system: Citrobacter diversus; assay: MIC against Gram-negative bacteria: Citrobacter diversus
In short: as §1

[8] = system: Enterobacter cloacae; assay: MIC against Gram-negative bacteria: Enterobacter cloacae
In short: as §1

[9] = system: Aeromonas hydrophila; assay: MIC against Gram-negative bacteria: Aeromonas hydrophila
In short: as §1

[10] = system: Moraxella catarrhalis; assay: MIC against Gram-negative bacteria: Moraxella catarrhalis
In short: as §1

[11] = system: Proteus vulgaris; assay: MIC against Gram-negative bacteria: Proteus vulgaris
In short: as §1

[12] = P. mirabilis, 10 h cultivation at 37° C.
[13] = S. marcescens, 10 h cultivation at 37° C.
[14] = E. coli BL21, 10 h cultivation at 37° C.
[15] = P. aeruginosa, 10 h cultivation at 37° C.
[16] = K. pneumonia, 10 h cultivation at 37° C.
[17] = C. diversus, 10 h cultivation at 37° C.
[18] = E. cloacae, 10 h cultivation at 37° C.
[19] = A. hydrophila, 10 h cultivation at 37° C.
[20] = M. catarrhalis, 10 h cultivation at 37° C.
[21] = P. vulgaris, 10 h cultivation at 37° C.
[22] = 96-well plate, 5×10^5 CFU/mL, 37° C., 10 h

PRT1455 (DWDECVDSAEHDCSPAAWCINLEGSYTCQCRTTRDATPSRAGRACE; listed as Homo sapiens)
25 µg/mL: MIC against S. marcescens ([2]; Serratia marcescens, 5×10^5 CFU/mL, 10 h cultivation at 37° C.) | MIC [3] | MIC against P. aeruginosa ([5]; Pseudomonas aeruginosa, 5×10^5 CFU/mL, 10 h cultivation at 37° C.) | MIC against K. pneumonia ([6]; Klebsiella pneumonia, 5×10^5 CFU/mL, 10 h cultivation at 37° C.) | MIC against A. hydrophila ([9]; Aeromonas hydrophila, 5×10^5 CFU/mL, 10 h cultivation at 37° C.)
12.5 µg/mL: MIC against P. mirabilis ([1]; Proteus mirabilis, 5×10^5 CFU/mL, 10 h cultivation at 37° C.) | MIC against E. coli BL21 ([4]; E. coli BL21, 5×10^5 CFU/mL, 10 h cultivation at 37° C.) | MIC against C. diversus ([7]; Citrobacter diversus, 5×10^5 CFU/mL, 10 h cultivation at 37° C.) | MIC against E. cloacae ([8]; Enterobacter cloacae, 5×10^5 CFU/mL, 10 h cultivation at 37° C.) | MIC against M. catarrhalis ([10]; Moraxella catarrhalis, 5×10^5 CFU/mL, 10 h cultivation at 37° C.) | MIC against P. vulgaris ([11]; Proteus vulgaris, 5×10^5 CFU/mL, 10 h cultivation at 37° C.)

PRT971 (DINDCDPNPCLNGGSCQDGVGSFSCSCLPGFAGPRCA; listed as Homo sapiens)
100 µg/mL: MIC [6, 16]
50 µg/mL: MIC [1, 12] | MIC [3] | MIC [5, 15] | MIC [9, 19]
12.5 µg/mL: MIC [4, 14] | MIC [7, 17] | MIC [11, 21]
25 µg/mL: MIC [2, 13] | MIC [8, 18] | MIC [10, 20]

PRT479 (AAMACSHQRCHGHGRCARRDPGQMEAFLHLWPDGSLGDWKSFSCHCYWGWAGPTCQ; listed as Homo sapiens)
25 µg/mL: MIC against P. mirabilis [1, 22] | MIC against S. marcescens [2, 22] | MIC [3] | MIC against P. aeruginosa [5, 22] | MIC against C. diversus [7, 22] | MIC against E. cloacae [8, 22]
50 µg/mL: MIC against E. coli BL21 [4, 22] | MIC against A. hydrophila [9, 22] | MIC against P. vulgaris [11, 22]
12.5 µg/mL: MIC against K. pneumonia [6, 22] | MIC against M. catarrhalis [10, 22]

PRT979 (LPDPCLSSPCAHGARCSVGPDGRFLCSCPPGYQGRSCR; listed as Homo sapiens)
12.5 µg/mL: MIC [1, 12] | MIC [2, 13] | MIC [4, 14] | MIC [6, 16] | MIC [9, 19]
100 µg/mL: MIC [7, 17]
50 µg/mL: MIC [3] | MIC [5, 15] | MIC [8, 18]
25 µg/mL: MIC [10, 20] | MIC [11, 21]

PRT138 (PCHNNATCEDSVDNYTCHCWPGYTGAQCE; listed as Homo sapiens)
100 µg/mL: MIC (μg/mL) M. catarrhalis ([10]; Moraxella catarrhalis, 96-well plate, 5×10^5 CFU/mL, 37° C., 10 h)
25 µg/mL: MIC (μg/mL) S. marcescens ([2]; Serratia marcescens, 96-well plate, 5×10^5 CFU/mL, 37° C., 10 h) | MIC (μg/mL) K. pneumonia ([6]; Klebsiella pneumonia, 96-well plate, 5×10^5 CFU/mL, 37° C., 10 h) | MIC (μg/mL) A. hydrophila ([9]; Aeromonas hydrophila, 96-well plate, 5×10^5 CFU/mL, 37° C., 10 h)
12.5 µg/mL: MIC (μg/mL) P. mirabilis ([1]; Proteus mirabilis, 96-well plate, 5×10^5 CFU/mL, 37° C., 10 h) | MIC [3] | MIC (μg/mL) P. aeruginosa ([5]; Pseudomonas aeruginosa, 96-well plate, 5×10^5 CFU/mL, 37° C., 10 h) | MIC (μg/mL) C. diversus ([7]; Citrobacter diversus, 96-well plate, 5×10^5 CFU/mL, 37° C., 10 h) | MIC (μg/mL) P. vulgaris ([11]; Proteus vulgaris, 96-well plate, 5×10^5 CFU/mL, 37° C., 10 h)
50 µg/mL: MIC (μg/mL) E. coli BL21 ([4]; E. coli BL21, 96-well plate, 5×10^5 CFU/mL, 37° C., 10 h) | MIC (μg/mL) E. cloacae ([8]; Enterobacter cloacae, 96-well plate, 5×10^5 CFU/mL, 37° C., 10 h)

PRT735 (GEENCNVNNGGCAQKCQMVRGAVQCTCHTGYRLTEDGHTCQ; listed as Homo sapiens)
50 µg/mL: MIC E. coli BL21 [4, 22] | MIC C. diversus [7, 22] | MIC P. vulgaris [11, 22]
25 µg/mL: MIC S. marcescens [2, 22] | MIC K. pneumonia [6, 22] | MIC A. hydrophila [9, 22] | MIC M. catarrhalis [10, 22]
12.5 µg/mL: MIC P. mirabilis [1, 22] | MIC [3] | MIC P. aeruginosa [5, 22] | MIC E. cloacae [8, 22]

PRT166 (NGSPCQHGGTCVDDEGRASHASCLCPPGFSGNFCE; listed as Homo sapiens)
12.5 µg/mL: MIC (μg/mL) P. mirabilis ([1]; P. mirabilis, 10 h cultivation at 37° C., 5×10^5 CFU/mL) | MIC [3] | MIC (μg/mL) P. aeruginosa ([5]; P. aeruginosa, 10 h cultivation at 37° C., 5×10^5 CFU/mL) | MIC (μg/mL) C. diversus ([7]; C. diversus, 10 h cultivation at 37° C., 5×10^5 CFU/mL) | MIC (μg/mL) E. cloacae ([8]; E. cloacae, 10 h cultivation at 37° C., 5×10^5 CFU/mL) | MIC (μg/mL) A. hydrophila ([9]; A. hydrophila, 10 h cultivation at 37° C., 5×10^5 CFU/mL) | MIC (μg/mL) M. catarrhalis ([10]; M. catarrhalis, 10 h cultivation at 37° C., 5×10^5 CFU/mL) | MIC (μg/mL) P. vulgaris ([11]; P. vulgaris, 10 h cultivation at 37° C., 5×10^5 CFU/mL)
50 µg/mL: MIC (μg/mL) S. marcescens ([2]; S. marcescens, 10 h cultivation at 37° C., 5×10^5 CFU/mL)
25 µg/mL: MIC (μg/mL) E. coli BL21 ([4]; E. coli BL21, 10 h cultivation at 37° C., 5×10^5 CFU/mL) | MIC (μg/mL) K. pneumonia ([6]; K. pneumonia, 10 h cultivation at 37° C., 5×10^5 CFU/mL)

Reference: patent US9833497B2, “Human originated EGF domain proteins and use of the same” (CHENGDU SOURCEBIO LIMITED-LIABILITY COMPANY, priority 2013, dated 2017)
